Measured values as given in paper PMC7481701 (Royal Society Open Science, 2020).

Tests used:
[1] = molecular target: T1, ChTL activity of the purified human 20S proteasome (Homo sapiens, UniProt P28074); assay: Purified 20S proteasome activity assay, ChTL activity (Suc-LLVY-AMC); type: biochemical; conditions: for inhibitory activity against the 20S proteasome (in words): ChTL activity, figure 2b
T1 construct: The human erythrocyte 20S proteasome was obtained from Boston Biochem; purchased Boston Biochem; host or cells: human erythrocytes
Method: For the proteasome inhibition assays, the peptide-7-amino-4-methylcoumarin (AMC) substrates (25 µM Suc-LLVY-AMC) and inhibitors were added to assay solutions. The assay buffer had the following composition: 25 mM HEPES, 0.5 mM EDTA, 0.03% SDS (pH 8.0). Human erythrocyte 20S proteasome (100 ng) was added to the assay buffer containing substrates and inhibitors at a final volume of 100 µl. After incubation at 37°C for 1 h, the fluorescence emission spectrum at 450 nm (λex, 365 nm) was measured by using a fluorescence microplate reader. The inhibition against PGPH activity of the 20S proteasome was determined as described above except that Z-LLE-AMC was used as the substrate. For the assay of inhibition against the trypsin-like activity of complex 2, the SDS was omitted from the assay buffer and Boc-LRR-AMC was used as the substrate. The assay of inhibition against the trypsin-like activity of complexes 1 and 3 was carried out by the Screening Committee of Anticancer Drugs (Cancer Chemotherapy Center, Japanese Foundation for Cancer Research).
[picture] For the proteasome inhibition assays, the peptide-AMC substrates (25 µM Suc-LLVY-AMC) and inhibitors were added to assay solutions. The assay buffer had the following composition: 25 mM HEPES, 0.5 mM EDTA, 0.03% SDS (pH 8.0). Human erythrocyte 20S proteasome (100 ng) was added to the assay buffer containing substrates and inhibitors at a final volume of 100 µL. After incubation at 37°C for 1 h, the fluorescence emission spectrum at 450 nm (λex, 365 nm) was measured by using a fluorescence microplate reader.

[2] = molecular target: T2, ChTL activity of the 20S proteasome from cell lysates (colon26) (Mus musculus, UniProt O55234); assay: Inhibition against chymotrypsin-like activity in whole-cell lysates; type: biochemical; conditions: whole-cell lysate, figure S3
T2 construct: endogenous in cells; host or cells: colon26 whole-cell lysate
Method: Cultures of colon26 were grown at 37°C in RPMI1640 supplemented with 10% fetal bovine serum. Whole-cell lysates were prepared according to the method in the literature.
(§1) For the determination of inhibitory activity in whole-cell lysates, peptide-AMC substrates (50 µM Suc-LLVY-AMC), inhibitors and the whole-cell lysate (15 µg) were added to the assay solutions. The following assay buffer was used: 25 mM HEPES, 0.5 mM EDTA, 0.03% SDS (pH 8.0). After incubation at 37°C for 4 h, the fluorescence emission was measured at 450 nm (λex = 365 nm) by using a fluorescence microplate reader.
as §1, with “the whole cell lysate,” for “whole-cell lysates,”, “inhibitors,” for “inhibitors”, “whole cell” for “whole-cell”, “37 °C” for “37°C”

[3] = purified 20S proteasome, figure S2

remaining activity at 10 µM ([1]; at 10 µM, purified 20S proteasome, figure S2, read-out: residual activity of ChTL) | IC50 ([1]; purified human erythrocyte 20S proteasome 100 ng, 25 µM Suc-LLVY-AMC, 37°C 1 h, mean ± s.d. (n = 3)) | inhibition in the cell-free system (in words) [2] | Structure (SMILES) | inhibitory activity against the 20S proteasome (in words) [1, 3]
43% | ~10 µM | no inhibition | NCCNCc1c2ccccc2cc2ccccc12 [N-9-anthracenylmethyl-1,2-ethanediamine, reference compound] | weak inhibitory activity
 |  |  | NCCN.[Cl-].[Cl-].[Pt+2].c1ccncc1.c1ccncc1 [Pt(py)2(ethylenediamine), (ethylenediamine)bispyridine platinum(II) chloride, reference compound] | no inhibitory activity
